PubChem BioAssay (NCI)
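Protocol summary: plate cells (96-well), add compound at 5 concentrations, incubate 48 h, interpolate endpoints linearly. Abbreviation: GI50, concentration required for 50% inhibition of growth. The concentration for full growth arrest is given as TGI.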 Where a SMILES comes first, the peptide text is derived from it. The star is where a group is joined. ONb = O=[N+]([O-])c1ccc(CO*)cc1; Boc = CC(C)(C)OC(=O)*

Columns and labels:
Experiment in all cases: NCI-60 cell line screen, 48 h
[1] = system: HCT-116 colon
[2] = system: HCT-15 colon
[3] = system: HL-60(TB) leukemia
[4] = system: HT29 colon
[5] = system: MDA-MB-231 breast
[6] = system: OVCAR-8 ovarian
[7] = system: SK-MEL-28 melanoma
[8] = system: SR leukemia
[9] = system: T-47D breast
[10] = system: DMS 114 small cell lung
[11] = system: HOP-18 NSCLC

SMILES	TGI [1]	TGI [2]	TGI [3]	TGI [4]	TGI [5]	TGI [6]	TGI [7]	TGI [8]	TGI [9]	TGI [10]	TGI [11]	GI50 [1]	GI50 [2]	GI50 [3]	GI50 [4]	GI50 [5]	GI50 [6]	GI50 [7]	GI50 [8]	GI50 [9]
Cn1c(-c2ccccc2)cc2c3ccsc3c3ccsc3c21	> 100 µM	> 100 µM	> 100 µM	> 100 µM	> 100 µM	> 100 µM	> 100 µM	> 100 µM	> 100 µM											
O=C(CCCCCCC(=O)Nc1cccnc1)NO	> 100 µM	> 100 µM	31.6 µM	> 37.4 µM	> 100 µM	> 57.5 µM	> 80.3 µM	> 100 µM	8.12 µM											
O=C1/C(=C/c2ccccc2O)N=C(c2ccccc2)N1c1nc2ccccc2s1	77.5 µM	44.9 µM	2.97 µM	74 µM	95.1 µM	72.6 µM	> 100 µM	7.19 µM	> 100 µM											
Brc1ccc2c([C@H]3CN[C@@H](c4c[nH]c5cc(Br)ccc45)CN3)c[nH]c2c1	3.03 µM	11.2 µM	4.22 µM	4.01 µM	6.65 µM	3.38 µM	27.2 µM	6.77 µM	12.8 µM											
CCOC(=O)NC(NC1=NCCS1)(C(=O)OCC)C(F)(F)F (stereo not drawn)	> 100 µM	> 100 µM	> 100 µM	> 100 µM	> 100 µM	> 100 µM	> 100 µM	> 100 µM	> 100 µM											
CCOC(=O)C(Cl)(NC(=O)c1c(F)c(F)c(F)c(F)c1F)C(F)(F)F (stereo not drawn)	> 100 µM	> 100 µM	> 100 µM	> 100 µM	> 100 µM	> 100 µM	> 100 µM	> 100 µM	> 100 µM											
COc1ccc2oc(OC)c(CC=C(C)C)c(=O)c2c1C	> 100 µM	> 100 µM	> 100 µM	> 100 µM	> 100 µM	> 100 µM	> 100 µM	> 100 µM	> 100 µM											
CC(C)C1=CCC2C(=C1)CCC1C(C)(C(=O)O)CCCC21C (stereo not drawn) (tested in a mixture with another compound)	> 100 µM	> 100 µM	> 100 µM	> 100 µM	> 100 µM	> 100 µM	> 100 µM	> 100 µM	> 100 µM											
NCCCNC1(c2cc3ccccc3s2)CCCCC1	4.91 µM	17.7 µM	14.8 µM	10.9 µM	14.2 µM	24.4 µM	4.59 µM	4.68 µM	6.96 µM											
Cc1cc(C)c2c(n1)S(=O)(=O)N(CCCN1CCN(c3cccc(C(F)(F)F)c3)CC1)c1c-2nn(C)c1C	> 100 µM	> 100 µM	> 100 µM	52 µM	> 100 µM	> 100 µM	> 100 µM	62 µM	> 100 µM											
Cc1cc(C)nc(SC(C)C(=O)N/N=C/c2ccc(OCc3ccccc3)cc2)n1 (stereo not drawn)	> 100 µM	> 100 µM	38.3 µM	> 100 µM	65 µM	> 100 µM	> 100 µM	38.1 µM	63.8 µM											
CN(C)c1ccccc1CN1CCCN(Cc2ccccc2N(C)C)C1c1ccncc1	23.3 µM	51.7 µM	32.4 µM	26.5 µM	51.5 µM	29 µM	23.7 µM	21.7 µM	38.7 µM											
COc1ccc(/C=C2\N=C(c3ccccc3)N(N=C3NC(=O)CC(=O)N3)C2=O)cc1	> 100 µM	> 100 µM	> 100 µM	> 100 µM	> 100 µM	> 100 µM	> 100 µM	> 100 µM	> 100 µM											
CC(C)[Si](OC1=CCC[C@H]2NC(=O)[C@@H](Cc3ccccc3)[C@@]12C)(C(C)C)C(C)C	14.1 µM	15.6 µM	7.82 µM	12.1 µM	26.5 µM	24.8 µM	13.1 µM	7.19 µM	12.2 µM											
O=C(O)c1cn2c3c(cc(N4CCN(CCO)CC4)cc3c1=O)SCC2	> 100 µM	> 100 µM	> 100 µM	> 100 µM		> 100 µM	> 100 µM			> 100 µM	> 100 µM									
COC(=O)C1=C(O)C(C(=O)OC)[C@]2(O)[C@H](C(=O)OC)[C@H]1C[C@@H](c1c(Cl)cccc1Cl)[C@H]2C(=O)OC (stereo partly drawn)	3.42 µM	4.49 µM	18.7 µM	7.16 µM	12.9 µM	3.66 µM	7.55 µM	4.87 µM	23 µM											
COc1ccc(OC)c(CC2CCc3nc(N)nc(N)c3C2)c1 (stereo not drawn)	> 100 µM	> 72.8 µM	> 100 µM	> 100 µM	> 100 µM	> 100 µM	> 92.5 µM	> 69.8 µM	> 68 µM											
COc1ccc(C(SCCO)(c2ccccc2)c2ccccc2)cc1	23.7 µM	28.7 µM	67 µM	39.2 µM	31 µM	38.5 µM	33.6 µM	> 100 µM	27 µM											
Nc1[nH]c(=S)nc2snnc12	> 100 µM	> 100 µM	> 100 µM	> 100 µM	> 100 µM	> 100 µM	> 100 µM	> 100 µM	> 100 µM											
CCCCCCOP(=O)(OCCCCCC)C(NC(=O)OCC)(C(F)(F)F)C(F)(F)F	90.2 µM	> 100 µM	> 100 µM	> 100 µM	56.6 µM	> 100 µM	> 100 µM	> 100 µM	> 100 µM											

SMILES	TGI [1]	TGI [2]	TGI [3]	TGI [4]	TGI [5]	TGI [6]	TGI [7]	TGI [8]	TGI [9]	TGI [10]	TGI [11]	GI50 [1]	GI50 [2]	GI50 [3]	GI50 [4]	GI50 [5]	GI50 [6]	GI50 [7]	GI50 [8]	GI50 [9]
CCOC(=O)c1c(N2CCCC2)[nH]c(=O)c(C(c2ccco2)c2c(O)c(C(=O)OCC)c(N3CCCC3)[nH]c2=O)c1O	> 100 µM	> 100 µM	> 100 µM	> 100 µM	> 100 µM	> 100 µM	> 100 µM	> 100 µM	> 100 µM											
CC1C2CC(C(S(=O)(=O)N3CCOCC3)/C2=N\O)C1(C)C (stereo not drawn)	> 100 µM	> 100 µM	> 100 µM	> 100 µM	> 100 µM	> 100 µM	> 100 µM	> 100 µM	> 100 µM											
N#C/C(=C\NC(=S)c1ccncc1)c1nc2ccccc2s1	> 100 µM	> 100 µM	> 100 µM	> 100 µM	> 100 µM	> 100 µM	> 100 µM	> 100 µM	> 100 µM											
c1ccc2c(c1)ncn2C1CCCCO1 (stereo not drawn)	> 100 µM	> 100 µM	> 100 µM	> 100 µM	> 100 µM	> 100 µM	> 100 µM	> 100 µM	> 100 µM											
Cc1cc(Cc2c(F)c(F)c(C(c3cc(C)no3)c3c(F)c(F)c(F)c(F)c3F)c(F)c2F)on1 (stereo not drawn)	> 100 µM	> 100 µM	> 39.6 µM	> 100 µM	> 100 µM	> 100 µM	> 100 µM	> 100 µM	> 100 µM											
CN1CCC(CN2c3ccccc3Sc3ccccc32)CC1	25.2 µM	32.4 µM	32.8 µM	25.3 µM		31.2 µM	23.1 µM	33.3 µM		29.8 µM	27.5 µM									
CC(C)CC(NC(=O)OC(C)(C)C)C(=O)NC(CCC(=O)OCc1ccc([N+](=O)[O-])cc1)C(=O)OCc1ccc([N+](=O)[O-])cc1 (stereo not drawn) (Boc-Leu-Glu(ONb)-ONb; configuration not given here)	> 100 µM	> 100 µM	19.1 µM	94.7 µM	> 100 µM	> 100 µM	30.9 µM	37.1 µM	> 100 µM											
O=C(Cc1nccc2c1[nH]c1ccccc12)OC1C#CCSCC#C/C=C\1 (stereo not drawn)	> 100 µM	> 100 µM	> 100 µM	> 100 µM	> 100 µM	> 100 µM	> 100 µM	> 100 µM	> 100 µM											
Nc1nc(Cl)cc(NCCC2(CO)CCC2)n1	> 100 µM	> 100 µM	> 100 µM	> 100 µM	> 100 µM	> 100 µM	> 100 µM	> 100 µM	> 100 µM											
Cc1noc2nnn(-c3ccc(Cl)cc3)c(=O)c12	11.3 µM	10.3 µM	3.57 µM	17.2 µM	25.7 µM	29.8 µM	25.5 µM	3.78 µM	10.8 µM											
O=C1/C(=C/c2ccc(Cl)cc2)N=C(c2ccccc2)N1CCc1cccs1	> 100 µM	> 100 µM	90.2 µM	> 100 µM	98.7 µM	> 100 µM	> 100 µM	> 100 µM	> 100 µM			6.65 µM	19.3 µM	21.4 µM	20.3 µM	13.6 µM	43.8 µM	62.8 µM	24.2 µM	18.2 µM
Cn1c2ccccc2c2c(=O)[nH]c(=O)[nH]c21	> 100 µM	> 100 µM	> 100 µM	> 100 µM	> 100 µM	> 100 µM	> 100 µM	> 100 µM	> 100 µM											
O=C(/C=C/c1cc(O)c(O)cc1O)OCCc1ccccc1	> 58.4 µM	54.7 µM	3.73 µM	41.6 µM	38.3 µM	22.9 µM	39.3 µM	30.6 µM	20.1 µM											
O=C/C=C/c1ccco1	> 100 µM	> 100 µM	> 100 µM	> 100 µM	> 100 µM	> 100 µM	> 100 µM	> 100 µM	> 100 µM											
O=C(/C=C/c1ccc(/C=C/C(=O)c2ccc(O)cc2)cc1)c1ccc(O)cc1	> 100 µM	> 100 µM	> 100 µM	> 100 µM	> 100 µM	> 100 µM	> 100 µM	> 100 µM	> 100 µM											
C#CC1(O)C(COP(=O)(O)OCC2OC(n3ccc(NCCCCCCCCCCCCCCCCCC)nc3=O)C(O)C2O)OC(n2ccc(N)nc2=O)C1O (stereo not drawn)	> 36 µM	36.6 µM	19.5 µM	> 95 µM	34.4 µM	35.3 µM	31.6 µM	11.7 µM	> 38.4 µM											
CCCCCCCCCCCCCC[S+](C)C	> 10 µM	> 10 µM	2.47 µM	4.93 µM	4.64 µM	3.58 µM	8.5 µM	2.35 µM	> 10 µM											
COC1(OC)CC(CO)(CNc2cc(Cl)nc(N)n2)C1	> 100 µM	> 100 µM	> 100 µM	> 100 µM	> 100 µM	> 100 µM	> 100 µM	> 100 µM	> 100 µM											
Nc1nc(N)c2ncn(Cc3ccccc3CCl)c2n1	> 100 µM	> 100 µM	> 100 µM	> 100 µM	> 100 µM	> 100 µM	> 100 µM	> 100 µM	> 100 µM											
Cc1ccc(OC2CC(n3cnc4ncnc(Cl)c43)OC2Oc2ccc(C)cc2)cc1 (stereo not drawn)	> 100 µM	> 100 µM	> 100 µM	> 100 µM	50.2 µM	26.8 µM	> 100 µM	> 100 µM	28.8 µM											
